Results on 1 compound are retold here after ChEMBL document CHEMBL5726429, “Inhibitors of lysine specific demethylase-1” (2017).

Molecules are shown by their SMILES.

The target of this experiment is Lysine-specific histone demethylase 1A (Homo sapiens, UniProt O60341). In words: In Vitro Enzyme Inhibition Assay: The enzymatic assay of LSD1 activity is based on Time Resolved-Fluorescence Resonance Energy Transfer (TR-FRET) detection. The inhibitory properties of compounds to LSD1 were determined in 384-well plate format under the following reaction conditions: 0.1-0.5 nM LSD1, 50 nM H3K4mel-biotin labeled peptide (Anaspec cat # 64355), 2 μM FAD in assay buffer of 50 mM …. For orientation: In TR-FRET formats the signal depends on donor and acceptor labels being close together.

In general, IC50 refers to the point on the concentration scale where inhibition reaches its midpoint. A lower IC50 goes with inhibition by little substance. As to `Cn1c(N2CCC(N)CC2)nc(-c2ccc(C#N)c(F)c2)c(Cl)c1=O`, the IC50 is < 100 nM.
